Test results: patent US8008303B2, “Biphenyl derivatives and their use in treating hepatitis C” (AstraZeneca AB, priority 2005, dated 2011)
Where two headings read alike, the source gives them in different places.

Experiments:
[1] = test system: HCV replicon cells Huh 9B; assay: HCV replicon assay (luciferase readout); format: cell-based
In short: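 Compounds, made up at twice final strength (final DMSO 1%), were added to subgenomic replicon cells one day after plating. Incubation then ran 72 h at 37 °C, 5% CO2, without G418. Replication was quantified as firefly luciferase luminescence in lysed cells, with cytotoxicity assessed on a duplicate clear plate.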

[2] = test system: HCV replicon cells Huh 9B; format: cell-based
[3] = Hepatitis C virus, 72 h, concentration reducing replicon level (luciferase activity) by 50% vs untreated cell control, 72 h incubation
[4] = concentration reducing total cell area by 50% relative to DMSO controls, methylene blue, absorbance 620 nm, 72 h incubation

SMILES	IC50 [1, 3]	TD50 [2, 4]	IC50 [1]	TD50 [2]
CCC(CC)C(=O)Nc1ccc(C)c(-c2ccc(C(=O)Nc3ccc(CN4CCS(=O)(=O)CC4)cc3)cc2)c1 [Example 181, 5′-(2-Ethyl-butyrylamino)-2′-methyl-biphenyl-4-carboxylic acid [4-(1,1-dioxo-1lambda*6*-thiomorpholin-4-ylmethyl)-phenyl]-amide]	< 1000 nM	* (* < 50 μM)	–	–
Cc1ccc(NC(=O)C2(C(F)(F)F)CC2)cc1-c1ccc(C(=O)Nc2ccc(CN3CCS(=O)(=O)CC3)cc2)cc1 [Example 173, 2′-Methyl-5′-[(1-trifluoromethyl-cyclopropanecarbonyl)-amino]-biphenyl-4-carboxylic acid [4-(1,1-dioxo-1lambda*6*-thiomorpholin-4-ylmethyl)-phenyl]-amide]	1000 to 5000 nM	* (* < 50 μM)	–	–
CN(C)S(=O)(=O)N1CCN(Cc2ccc(NC(=O)c3ccc(-c4cc(NC(=O)NC5CCCCC5)ccc4Cl)cc3)cc2)CC1 [Example 255, 2′-Chloro-5′-(3-cyclohexyl-ureido)-biphenyl-4-carboxylic acid [4-(4-dimethylsulfamoyl-piperazin-1-ylmethyl]-phenyl}-amide]	< 1000 nM	* (* < 50 μM)	–	–
COc1cccc(NC(=O)c2ccc(-c3cc(NC(=O)c4ccc(N5CCOCC5)cc4)ccc3C)cc2)c1 [Example 91, 2′-Methyl-5′-(4-morpholin-4-yl-benzoylamino)-biphenyl-4-carboxylic acid (3-methoxy-phenyl)-amide]	1000 to 5000 nM	** (** > 50 μM)	–	–
Cc1cc(C(=O)Nc2ccc(N3CCOCC3)cc2)ccc1-c1cccc(C(=O)Nc2ccc(CN3CCS(=O)(=O)CC3)cc2)c1 [Example 135, 2′-Methyl-biphenyl-3,4′-dicarboxylic acid 3-{[4-(1,1-dioxo-1 lambda*6*-thiomorpholin-4-ylmethyl)-phenyl]-amide} 4′-[(4-morpholin-4-yl-phenyl)-amide]]	–	–	< 1000 nM	* (key: * < 50 μM; ** > 50 μM)
Cc1ccc(NC(=O)c2ccc(N3CCOCC3)cc2)cc1-c1ccc(C(=O)Nc2ccc(Br)c(Cl)c2)cc1 [Example 90, 2′-Methyl-5′-(4-morpholin-4-yl-benzoylamino)-biphenyl-4-carboxylic acid (4-bromo-3-chloro-phenyl)-amide]	> 5000 nM	** (** > 50 μM)	–	–
Cc1ccc(NC(=O)N2CCOCC2)cc1-c1ccc(C(=O)Nc2ccc(CN3CCS(=O)(=O)CC3)cc2)cc1 [Example 152, Morpholine-4-carboxylic acid {4′-[4-(1,1-dioxo-1lambda*6*-thiomorpholin-4-ylmethyl)-phenylcarbamoyl]-6-methyl-biphenyl-3-yl}-amide]	< 1000 nM	** (** > 50 μM)	–	–
Cc1ccc(CNc2ccc3cn[nH]c3c2)cc1-c1ccc(C(=O)Nc2ccc(CN3CCS(=O)(=O)CC3)cc2)cc1 [Example 197, 5′-[(1H-Indazol-6-ylamino)-methyl]-2′-methyl-biphenyl-4-carboxylic acid [4-(1,1-dioxo-1lambda*6*-thiomorpholin-4-ylmethyl)-phenyl]-amide]	< 1000 nM	** (** > 50 μM)	–	–
CCN(CC)CCNC(=O)c1ccc(NC(=O)c2ccc(-c3cc(C(=O)NC4CC4)ccc3C)cc2)cc1 [Example 208, 6-Methyl-biphenyl-3,4′-dicarboxylic acid 3-cyclopropylamide 4′-{[4-(2-diethylamino-ethylcarbamoyl)-phenyl]-amide}]	–	–	> 5000 nM	* (key: * < 50 μM; ** > 50 μM)
CCNC(=O)Nc1ccc(C)c(-c2ccc(C(=O)Nc3ccc(CN4CCS(=O)(=O)CC4)cc3)cc2)c1 [Example 188, 5′-(3-Ethyl-ureido)-2′-methyl-biphenyl-4-carboxylic acid [4-(1,1-dioxo-1lambda*6*-thiomorpholin-4-ylmethyl)-phenyl]-amide]	< 1000 nM	* (* < 50 μM)	–	–
O=C(Nc1ccc(CN2CCS(=O)(=O)CC2)cc1)c1ccc(-c2cccc(NC(=O)C3CCCCC3)c2)cc1 [Example 196, 3′-(Cyclohexanecarbonyl-amino)-biphenyl-4-carboxylic acid [4-(1,1-dioxo-1lambda*6*-thiomorpholin-4-ylmethyl)-phenyl]-amide]	1000 to 5000 nM	* (* < 50 μM)	–	–
Cc1ccc(C(=O)Nc2ccc(N3CCOCC3)cc2)cc1-c1ccc(CNc2ccc3cn[nH]c3c2)cc1 [Example 97, 4′-[(1H-Indazol-6-ylamino)-methyl]-6-methyl-biphenyl-3-carboxylic acid (4-morpholin-4-yl-phenyl)-amide]	1000 to 5000 nM	** (** > 50 μM)	–	–
CCCS(=O)(=O)N1CCN(Cc2ccc(NC(=O)c3ccc(-c4cc(NC(=O)[C@H]5CCCCN5)ccc4OC(F)(F)F)cc3)cc2)CC1 [Example 234, (R)-Piperidine-2-carboxylic acid (4′-{4-[4-(propane-1-sulfonyl)-piperazin-1-ylmethyl]-phenylcarbamoyl}-6-trifluoromethoxy-biphenyl-3-yl)-amide]	< 1000 nM	* (* < 50 μM)	–	–
Cc1ccc(C(=O)Nc2ccc(N3CCOCC3)cc2)cc1-c1ccc(C(=O)NCc2ccc(N3CCOCC3)cc2)cc1 [Example 20, 6-Methyl-biphenyl-3,4′-dicarboxylic acid 4′-(4-morpholin-4-yl-benzylamide) 3-[(4-morpholin-4-yl-phenyl)-amide]]	–	–	> 5000 nM	** (key: * < 50 μM; ** > 50 μM)
Cc1ccc(NC(=O)c2ccc(Br)cc2)cc1-c1ccc(C(=O)Nc2ccc(CN3CCS(=O)(=O)CC3)cc2)cc1 [Example 154, 5′-(4-Bromo-benzoylamino)-2′-methyl-biphenyl-4-carboxylic acid [4-(1,1-dioxo-1lambda*6*-thiomorpholin-4-ylmethyl)-phenyl]-amide]	< 1000 nM	* (* < 50 μM)	–	–
Cc1ccc(C(=O)NCC2CCCCC2)cc1-c1ccc(C(=O)Nc2ccc(CN3CCS(=O)(=O)CC3)cc2)cc1 [Example 146, 6-Methyl-biphenyl-3,4′-dicarboxylic acid 3-cyclohexylmethyl-amide 4′-{[4-(1,1-dioxo-1lambda*6*-thiomorpholin-4-ylmethyl)-phenyl]-amide}]	–	–	< 1000 nM	* (key: * < 50 μM; ** > 50 μM)
Cc1ccc(NC(=O)C2CC2)cc1-c1ccc(C(=O)NCc2ccc(N3CCN(C)CC3)cc2)cc1 [Example 217, 5′-(Cyclopropanecarbonyl-amino)-2′-methyl-biphenyl-4-carboxylic acid 4-(4-methyl-piperazin-1-yl)-benzylamide]	> 5000 nM	* (* < 50 μM)	–	–
Cc1ccc(NC(=O)C2CCCC2)cc1-c1ccc(C(=O)Nc2ccc(CN3CCS(=O)(=O)CC3)cc2)cc1 [Example 167, 5′-(Cyclopentanecarbonyl-amino)-2′-methyl-biphenyl-4-carboxylic acid [4-(1,1-dioxo-1lambda*6*-thiomorpholin-4-ylmethyl)-phenyl]-amide]	< 1000 nM	* (* < 50 μM)	–	–
Cc1ccc(NC(=O)c2ccc(N3CCOCC3)cc2)cc1-c1ccc(C(=O)Nc2ccc3cc[nH]c3c2)cc1 [Example 93, 2′-Methyl-5′-(4-morpholin-4-yl-benzoylamino)-biphenyl-4-carboxylic acid (1H-indol-6-yl)-amide]	< 1000 nM	** (** > 50 μM)	–	–
Cc1ccc(C(=O)Nc2ccc(N3CCOCC3)cc2)cc1-c1ccc(NC(=O)c2nc3ccccc3nc2O)cc1 [Example 104, 3-Hydroxy-quinoxaline-2-carboxylic acid [2′-methyl-5′-(4-morpholin-4-yl-phenylcarbamoyl)-biphenyl-4-yl]-amide]	1000 to 5000 nM	** (** > 50 μM)	–	–
Cc1ccc(C(=O)Nc2ccc(N3CCOCC3)cc2)cc1-c1ccc(C(=O)NCc2cccc(F)c2)cc1 [Example 5, 6-Methyl-biphenyl-3,4′-dicarboxylic acid 4′-(3-fluoro-benzylamide) 3-[(4-morpholin-4-yl-phenyl)-amide]]	–	–	1000 to 5000 nM	** (key: * < 50 μM; ** > 50 μM)
COc1ccc(S(=O)(=O)Nc2ccc(N3CCOCC3)cc2)cc1-c1ccc(C(=O)Nc2ccc(CN3CCS(=O)(=O)CC3)cc2)cc1 [Example 244, 2′-Methoxy-5′-(4-morpholin-4-yl-phenylsulfamoyl)-biphenyl-4-carboxylic acid [4-(1,1-dioxo-1lambda*6*-thiomorpholin-4-ylmethyl)-phenyl]-amide]	< 1000 nM	* (* < 50 μM)	–	–
Cc1ccc(NC(=O)c2ccco2)cc1-c1ccc(C(=O)Nc2ccc3cc[nH]c3c2)cc1 [Example 233, Furan-2-carboxylic acid [4′-(1H-indol-6-ylcarbamoyl)-6-methyl-biphenyl-3-yl]-amide]	< 1000 nM	* (* < 50 μM)	–	–
Cc1ccc(C(=O)NC2CC2)cc1-c1ccc(C(=O)Nc2ccc(CN3CCS(=O)(=O)CC3)cc2)cc1 [Example 121, 6-Methyl-biphenyl-3,4′-dicarboxylic acid 3-cyclopropylamide 4′-{[4-(1,1-dioxo-1lambda*6*-thiomorpholin-4-ylmethyl)-phenyl]-amide}]	–	–	1000 to 5000 nM	* (key: * < 50 μM; ** > 50 μM)
Cc1ccc(C(=O)Nc2ccc(N3CCOCC3)cc2)cc1-c1ccc(C(=O)NCc2cccc(Cl)c2F)cc1 [Example 57, 6-Methyl-biphenyl-3,4′-dicarboxylic acid 4′-(3-chloro-2-fluoro-benzylamide) 3-[(4-morpholin-4-yl-phenyl)-amide]]	–	–	1000 to 5000 nM	** (key: * < 50 μM; ** > 50 μM)
Cc1cc(C(=O)Nc2ccc(N3CCOCC3)cc2)ccc1-c1cccc(C(=O)NCc2cccc(Cl)c2)c1 [Example 66, 2′-Methyl-biphenyl-3,4′-dicarboxylic acid 3-(3-chloro-benzylamide) 4′-[(4-morpholin-4-yl-phenyl)-amide]]	–	–	1000 to 5000 nM	* (key: * < 50 μM; ** > 50 μM)
